Experiment [1] deals with spleen cells of nu/nu Balb/c mice. Nature of the experiment: B cell proliferation assay (anti-IgM stimulated spleen cells). The class given is cell-based. The note with it: anti-mouse IgM 5 μg/ml, 3 days, [3H] thymidine incorporation. As to the method: B cell proliferation assay. A spleen cell suspension of nu/nu Balb/c mice is prepared and adjusted to 2×10^6 cells/ml in complete Iscoves Medium followed by the addition of 10 μg/ml monoclonal anti-mouse IgM antibody (clone b-7-6). Compounds to be rested are dissolved in DMSO at 10 mM and diluted in complete Iscoves Medium. […] Plates are incubated for 3 days at 37° C. and 5% CO2. Cell proliferation is measured by incorporation of [^3H] thymidine following a 16 hours pulse.
A general note: Dividing cells build labelled thymidine or BrdU into new DNA.

Another experiment relates to PI3K α, β or γ isoform. Nature of the experiment: Selectivity for the δ isoform by corresponding assay using the corresponding PI3K isoform. The experiment is classed as biochemical. To be noted: δ versus α. As to the method:
PI3K delta enzyme assay based on Scintillation Proximity Assay (SPA) technology. Human PI3K delta is expressed as a recombinant protein in insect cells. PI3K delta activity is assayed by measuring the phosphorylation of phosphatidylinositol (PI) using a scintillation proximity assay. Briefly, the kinase reaction is performed in a final volume of 50 μl/well. The final concentrations of ATP and PI in the assay are 5 μM and 6 μg/ml, respectively. The reaction is started by the addition of PI3K delta and terminated by the addition of 50 μl Wheatgerm agglutinin SPA beads after 90 minutes of incubation at room temperature.

In the next experiment the target is T1, Human PI3K delta (Homo sapiens, UniProt O00329).
T1 construct: fused on or other part: CaaX box (isoprenylation / membrane-targeting signal) added at the C-terminal end
T1 sequence (O00329 1-1044): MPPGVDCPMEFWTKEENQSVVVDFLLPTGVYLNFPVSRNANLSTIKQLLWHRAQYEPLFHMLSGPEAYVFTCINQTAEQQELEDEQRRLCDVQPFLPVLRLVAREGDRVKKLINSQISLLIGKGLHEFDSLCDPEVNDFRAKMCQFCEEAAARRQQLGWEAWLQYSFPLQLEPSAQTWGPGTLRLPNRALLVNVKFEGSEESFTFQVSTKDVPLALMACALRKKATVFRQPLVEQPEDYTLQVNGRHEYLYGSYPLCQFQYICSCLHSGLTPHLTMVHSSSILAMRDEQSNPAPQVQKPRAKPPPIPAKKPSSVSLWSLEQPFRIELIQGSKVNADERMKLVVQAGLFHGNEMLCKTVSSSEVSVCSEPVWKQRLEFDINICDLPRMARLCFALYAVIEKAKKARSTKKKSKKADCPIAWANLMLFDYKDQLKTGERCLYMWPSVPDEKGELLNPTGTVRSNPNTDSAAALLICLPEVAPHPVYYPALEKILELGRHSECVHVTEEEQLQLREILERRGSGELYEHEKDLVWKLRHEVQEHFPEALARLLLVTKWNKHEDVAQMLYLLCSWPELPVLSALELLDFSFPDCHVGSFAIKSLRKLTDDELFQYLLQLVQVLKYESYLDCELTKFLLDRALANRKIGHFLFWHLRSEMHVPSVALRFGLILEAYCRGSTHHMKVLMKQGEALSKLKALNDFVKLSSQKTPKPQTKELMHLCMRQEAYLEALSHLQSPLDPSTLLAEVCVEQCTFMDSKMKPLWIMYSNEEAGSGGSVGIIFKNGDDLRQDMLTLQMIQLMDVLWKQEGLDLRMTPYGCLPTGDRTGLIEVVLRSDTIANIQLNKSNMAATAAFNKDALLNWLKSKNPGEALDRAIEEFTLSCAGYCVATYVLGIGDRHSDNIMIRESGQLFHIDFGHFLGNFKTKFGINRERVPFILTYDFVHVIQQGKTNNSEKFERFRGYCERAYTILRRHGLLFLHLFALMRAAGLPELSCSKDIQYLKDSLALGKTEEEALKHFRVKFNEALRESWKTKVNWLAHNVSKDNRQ
Nature of the experiment: Cellular PI3K delta assay (Akt phosphorylation in transfected Rat-1 cells). The class given is cell-based. To be noted: Rat-1 cells transfected with human PI3K delta CaaX construct, phospho Akt ELISA; read-out: IC50 PI3K delta-dependent Akt phosphorylation. An excerpt: Cellular PI3K delta assay. Rat-1 cells are transiently transfected with a human PI3K delta construct (pcDNA3 PIK3 delta containing a CaaX box at the C-terminal end) using the FUGENE transfection kit. The CaaX box signals for the attachment of an isoprenoid moiety which activates PI3K delta by targeting it to intracellular membranes/the plasma membrane. Subsequent, PI3K delta-dependent Akt phosphorylation is quantified in presence and absence of compounds to be tested using the phospho Akt ELISA kit from R&D Systems.
(In general: ELISA stands for enzyme-linked immunosorbent assay.)

Experiment [2] deals with spleen cells from CBA and BALB/c mice. Nature of the experiment: Mixed lymphocyte reaction (two-way MLR). The note with it: Mus musculus, four days of incubation, 3H-thymidine incorporation. The class given is cell-based. As to the method: Mixed lymphocyte reaction (MLR). A two-way MLR is performed according to standard procedures. Briefly, spleen cells from CBA and BALB/c mice (1.6×10^5 cells from each strain per well in flat bottom tissue culture microtiter plates, 3.2×10^5 in total) are incubated in RPMI medium containing 10% fetal calf serum, 100 U/ml penicillin, 100 μg/ml streptomycin, 50 μM 2-mercaptoethanol and serially diluted compounds to be tested. After four days of incubation 1 μCi [^3H] thymidine is added to the cultures. Cells are harvested after an additional five-hour incubation period, and incorporated ^3H-thymidine is determined according to standard procedures. […] In this assay, the compounds of formula I have ICsovalues ranging from 20 nM to 200 nM.

SMILES strings stand for the structures. pIC50: −log10 of the molar value.

Regarding `Cc1cc(NC(=O)CCNC(=O)Nc2nc(C)c(-c3ccc(-n4cccn4)cc3)s2)no1` [Example 2, N-(5-Methyl-isoxazol-3-yl)-3-{3-[4-methyl-5-(4-pyrazol-1-yl-phenyl)-thiazol-2-yl]-ureido}-propionamide], the results for the pIC50 (in experiment [1]; at Human PI3K delta; in experiment [2]) were 7.82, 7.66 and 7.59, respectively. Also, the “selectivity for the δ isoform over the α, β or γ isoform (ratio of IC50 values)” value in the experiment on PI3K α, β or γ isoform was “at least 10 fold”.

(Values after patent publication US7799810B2, “Organic compounds” (Novartis AG, priority 2006, dated 2010).)
